Test results published in PubChem BioAssay (NCI).
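Where inhibition never reached the appropriate level, the endpoint shown equals the highest concentration tested. Otherwise, values were interpolated linearly from a five-concentration, 48-hour dose response in 96-well plates. At the TGI there is no net growth.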

How the values were obtained:
Assay in all cases: DTP human tumour cell line panel, 48 h
U251 CNS = system: U251 CNS
SNB-19 CNS = system: SNB-19 CNS
CCRF-CEM leukemia = system: CCRF-CEM leukemia
MDA-MB-231 breast = system: MDA-MB-231 breast
HCT-116 colon = system: HCT-116 colon
PC-3 prostate = system: PC-3 prostate
UACC-257 melanoma = system: UACC-257 melanoma
MALME-3M melanoma = system: MALME-3M melanoma
RXF 393 renal = system: RXF 393 renal
DU-145 prostate = system: DU-145 prostate
T-47D breast = system: T-47D breast
HCC-2998 colon = system: HCC-2998 colon
MCF7 breast = system: MCF7 breast
SN12C renal = system: SN12C renal
COLO 205 colon = system: COLO 205 colon
HT29 colon = system: HT29 colon
OVCAR-3 ovarian = system: OVCAR-3 ovarian
NCI/ADR-RES ovarian = system: NCI/ADR-RES ovarian
KM12 colon = system: KM12 colon
SK-OV-3 ovarian = system: SK-OV-3 ovarian
SK-MEL-28 melanoma = system: SK-MEL-28 melanoma
TK-10 renal = system: TK-10 renal
NCI-H460 lung = system: NCI-H460 lung
UACC-62 melanoma = system: UACC-62 melanoma
NCI-H23 lung = system: NCI-H23 lung
NCI-H226 lung = system: NCI-H226 lung
K-562 leukemia = system: K-562 leukemia
SF-268 CNS = system: SF-268 CNS
M14 melanoma = system: M14 melanoma
A549 NSCLC = system: A549 NSCLC
SF-539 CNS = system: SF-539 CNS
OVCAR-5 ovarian = system: OVCAR-5 ovarian
HCT-15 colon = system: HCT-15 colon
IGROV1 ovarian = system: IGROV1 ovarian
SK-MEL-2 melanoma = system: SK-MEL-2 melanoma
LOX IMVI melanoma = system: LOX IMVI melanoma
MDA-MB-435 = system: MDA-MB-435
HOP-62 NSCLC = system: HOP-62 NSCLC
CAKI-1 renal = system: CAKI-1 renal
UO-31 renal = system: UO-31 renal
A498 renal = system: A498 renal
ACHN renal = system: ACHN renal
NCI-H522 lung = system: NCI-H522 lung
HL-60(TB) leukemia = system: HL-60(TB) leukemia
MOLT-4 leukemia = system: MOLT-4 leukemia
SNB-75 CNS = system: SNB-75 CNS
MDA-N = system: MDA-N
EKVX NSCLC = system: EKVX NSCLC
SF-295 CNS = system: SF-295 CNS
OVCAR-4 ovarian = system: OVCAR-4 ovarian
SW-620 colon = system: SW-620 colon
786-0 renal = system: 786-0 renal
OVCAR-8 ovarian = system: OVCAR-8 ovarian
HOP-92 NSCLC = system: HOP-92 NSCLC
BT-549 breast = system: BT-549 breast
SK-MEL-5 melanoma = system: SK-MEL-5 melanoma
RPMI-8226 leukemia = system: RPMI-8226 leukemia
HS 578T breast = system: HS 578T breast

Measured: TGI

NNC(=O)CNC(=O)CSc1nnc(COc2ccc(Cl)cc2)n1-c1ccccc1
not listed: BT-549 breast | SK-MEL-5 melanoma | RPMI-8226 leukemia | HS 578T breast
> 100 µM: all other assays above

CCOP(=O)(Nc1ccc(-c2ccccc2)cc1)OCC
not listed: CCRF-CEM leukemia | T-47D breast | SN12C renal | NCI-H226 lung | SF-539 CNS | LOX IMVI melanoma | HL-60(TB) leukemia | SW-620 colon
> 100 µM: all other assays above
